These results are taken from patent US11884647B2, “Compounds and methods for targeting pathogenic blood vessels” (THE REGENTS OF THE UNIVERSITY OF CALIFORNIA, priority 2019, dated 2024).

Each structure is given as a SMILES string.

One assay concerns tumor endothelial cells (LL/2 lung cancer tumor). Kind of assay: Lung LL2 ex vivo model of tumor angiogenesis. The format is cell-based, mouse. To be noted: Lung LL2 ex vivo; Conc. 20 μm; 48 hrs. In outline: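 Mouse LL2 tumor fragments (~0.5×0.5×0.3 mm) embedded in Matrigel and grown in endothelial growth medium at 37° C until endothelial outgrowth (about 4 days) before drug treatment. About 48 h after drug addition, stained 10 min with fluorescein diacetate/propidium iodide; live (green) and dead (red) cells imaged at 2× with fixed channel settings.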
For `CCCCCCCCCCCCCCOc1ccc(S(=O)(=O)c2cnc3ccc([S](C)[O])cc3c2N2CCC(N3CCC(N4CCCC(O)C4)CC3)CC2)cc1` (stereo not shown) [compound 348, 1″-(6-(methyl(λ^1-oxidanyl)-λ^3-sulfanyl)-3-((4-(tetradecyloxy)phenyl)sulfonyl)quinolin-4-yl)-[1,4′:1′,4″-terpiperidin]-3-ol], the “48 hrs (morphology observations after 48 hours)” value is recorded as “* (50% or less of cells vesicularize in cell shape)”.

The assay is the same for the next values; noted with them: Lung LL2 ex vivo; Conc. 20 μm; drug treatment two days.
`CCCCCCCCCCCCCCOc1ccc(S(=O)(=O)c2cnc3ccc([S](C)[O])cc3c2N2CCC(N3CCC(N4CCCC(O)C4)CC3)CC2)cc1` (stereo not shown) [compound 348, 1″-(6-(methyl(λ^1-oxidanyl)-λ^3-sulfanyl)-3-((4-(tetradecyloxy)phenyl)sulfonyl)quinolin-4-yl)-[1,4′:1′,4″-terpiperidin]-3-ol]: the Cell death was determined as 20%.

Still in this assay, the particulars now being: Lung LL2 ex vivo; Conc. 40 μm; drug treatment two days.
Compound `CCCCOc1ccc(S(=O)(=O)c2cnc3ccc(SC)cc3c2N2CCC(N3CCCC3CO)CC2)cc1` (stereo not shown) [compound 350, (1-(1-(3-((4-butoxyphenyl)sulfonyl)-6-(methylthio)quinolin-4-yl)piperidin-4-yl)pyrrolidin-2-yl)methanol] came in with a Cell death of 20%. On the same count and under the same terms, the result for `CCCCOc1ccc(S(=O)(=O)c2cnc3ccc(SC)cc3c2N2CCCN(CCO)CC2)cc1` [compound 351, 2-(4-(3-((4-butoxyphenyl)sulfonyl)-6-(methylthio)quinolin-4-yl)-1,4-diazepan-1-yl)ethan-1-ol] reads 100%; that for `CCCCOc1ccc(S(=O)(=O)c2cnc3ccc(SC)cc3c2N2CCC3C(COCCN3CC(C)C)C2)cc1` (stereo not shown) [compound 352, 7-(3-((4-butoxyphenyl)sulfonyl)-6-(methylthio)quinolin-4-yl)-1-isobutyldecahydropyrido[4,3-e][1,4]oxazepine], 100%; that for `CCCCOc1ccc(S(=O)(=O)c2cnc3ccc(SC)cc3c2N2CCCN(S(=O)(=O)NCC(F)(F)F)CC2)cc1` [compound 353, 4-(3-((4-butoxyphenyl)sulfonyl)-6-(methylthio)quinolin-4-yl)-N-(2,2,2-trifluoroethyl)-1,4-diazepane-1-sulfonamide], 0%. As to `CCCCOc1ccc(S(=O)(=O)c2cnc3ccc(SC)cc3c2N2CCCN(CC3(O)CCCC3)CC2)cc1` [compound 354, 1-((4-(3-((4-butoxyphenyl)sulfonyl)-6-(methylthio)quinolin-4-yl)-1,4-diazepan-1-yl)methyl)cyclopentan-1-ol], the Cell death came to 0%. Same read-out and setting: then `CCCCOc1ccc(S(=O)(=O)c2cnc3ccc(SC)cc3c2N2CCCN(C3COC3)CC2)cc1` [compound 355, 3-((4-butoxyphenyl)sulfonyl)-6-(methylthio)-4-(4-(oxetan-3-yl)-1,4-diazepan-1-yl)quinoline], with 0%. `CCCCOc1ccc(S(=O)(=O)c2cnc3ccc(SC)cc3c2N2CCCN(c3nc4ccc(Cl)cc4s3)CC2)cc1` [compound 356, 2-(4-(3-((4-butoxyphenyl)sulfonyl)-6-(methylthio)quinolin-4-yl)-1,4-diazepan-1-yl)-6-chlorobenzo[d]thiazole] displayed a Cell death of 0%.

Compound `CCCCOc1ccc(S(=O)(=O)c2cnc3ccc(SC)cc3c2N2CCC(=O)N(C)CC2)cc1` [compound 357, 1-(3-((4-butoxyphenyl)sulfonyl)-6-(methylthio)quinolin-4-yl)-4-methyl-1,4-diazepan-5-one] came in with a Cell death of 0%. The compound `CCCCOc1ccc(S(=O)(=O)c2cnc3ccc(SC)cc3c2N2CCCN(C3CCSCC3)CC2)cc1` [compound 358, 3-((4-butoxyphenyl)sulfonyl)-6-(methylthio)-4-(4-(tetrahydro-2H-thiopyran-4-yl)-1,4-diazepan-1-yl)quinoline] gave a Cell death of 0%. Still for that read-out and setting: then `CCCCOc1ccc(S(=O)(=O)c2cnc3ccc(SC)cc3c2N2CCCN(C3CCS(=O)(=O)CC3)CC2)cc1` [compound 359, 4-(4-(3-((4-butoxyphenyl)sulfonyl)-6-(methylthio)quinolin-4-yl)-1,4-diazepan-1-yl)tetrahydro-2H-thiopyran 1,1-dioxide], with 20%.

In turn, `CNC(=O)c1ccc2ncc(S(=O)(=O)c3ccc(OC)cc3)c(NC)c2c1` [compound 360, 3-((4-methoxyphenyl)sulfonyl)-N-methyl-4-(methylamino)quinoline-6-carboxamide] yielded a Cell death of 20%.

Staying with this assay, now noted: Mus musculus, Endothelial cell, 48 h, read-out: Cell death.
In the case of `CCCCCCCCCCCCOc1ccc(S(=O)(=O)c2cnc3ccc([S+](C)[O-])cc3c2N2CCC(N3CCC(N4CCN(CCO)CC4)CC3)CC2)cc1` (stereo not shown) [compound 340, 2-(4-(1′-(3-((4-(dodecyloxy)phenyl)sulfonyl)-6-(methylsulfinyl)quinolin-4-yl)-[1,4′-bipiperidin]-4-yl)piperazin-1-yl)ethan-1-ol], the cytotoxicity at 20 µM is 60%. The same measure, in the same setting: then `CCCCCCCCCCCCOc1ccc(S(=O)(=O)c2cnc3ccc([S+](C)[O-])cc3c2N2CCC(N3CCC(N4CCN(C)CC4)CC3)CC2)cc1` (stereo not shown) [compound 341, 3-((4-(dodecyloxy)phenyl)sulfonyl)-4-(4-(4-methylpiperazin-1-yl)-[1,4′-bipiperidin]-1′-yl)-6-(methylsulfinyl)quinoline], with 80%. The same measure, in the same setting: the result for `CCCCCCCCCCCCOc1ccc(S(=O)(=O)c2cnc3ccc([S+](C)[O-])cc3c2N2CCC(N3CCC(N4CCCC(O)C4)CC3)CC2)cc1` (stereo not shown) [compound 343, 1″-(3-((4-(dodecyloxy)phenyl)sulfonyl)-6-(methylsulfinyl)quinolin-4-yl)-[1,4′:1′,4″-terpiperidin]-3-ol] reads 50%. Still for that read-out and setting: then `CCCCCCCCCCCCCCOc1ccc(S(=O)(=O)c2cnc3ccc([S+](C)[O-])cc3c2N2CCC(N3CCN(CCO)CC3)CC2)cc1` (stereo not shown) [compound 344, 2-(4-(1-(6-(methylsulfinyl)-3-((4-(tetradecyloxy)phenyl)sulfonyl)quinolin-4-yl)piperidin-4-yl)piperazin-1-yl)ethan-1-ol], with 10%; and `CCCCCCCCCCCCCCOc1ccc(S(=O)(=O)c2cnc3ccc([S+](C)[O-])cc3c2N2CCC(N3CCC(N4CCN(CCO)CC4)CC3)CC2)cc1` (stereo not shown) [compound 345, 2-(4-(1′-(6-(methylsulfinyl)-3-((4-(tetradecyloxy)phenyl)sulfonyl)quinolin-4-yl)-[1,4′-bipiperidin]-4-yl)piperazin-1-yl)ethan-1-ol], with 50%.

For the compound `CCCCCCCCCCCCOc1ccc(S(=O)(=O)c2cnc3ccc([S+](C)[O-])cc3c2N2CCC(N3CCN(CCO)CC3)CC2)cc1F` (stereo not shown) [compound 362, 2-(4-(1-(3-((4-(dodecyloxy)-3-fluorophenyl)sulfonyl)-6-(methylsulfinyl)quinolin-4-yl)piperidin-4-yl)piperazin-1-yl)ethanol], the cytotoxicity at 20 µM was found to be 20%.

Turning to `CCCCCCCCCCCCOc1ccc(S(=O)(=O)c2cnc3ccc([S+](C)[O-])cc3c2N2CCC(N3CCC(N4CCCCC4)CC3)CC2)cc1F` (stereo not shown) [compound 363, 4-([1,4′:1′,4″-terpiperidin]-1″-yl)-3-((4-(dodecyloxy)-3-fluorophenyl)sulfonyl)-6-(methylsulfinyl)quinoline], the cytotoxicity at 20 µM was 30%. For `CCCCCCCCCCCCOc1ccc(S(=O)(=O)c2cnc3ccc([S+](C)[O-])cc3c2N2CCC(N3CCC(N4CCCC(O)C4)CC3)CC2)cc1F` (stereo not shown) [compound 364, 1″-(3-((4-(dodecyloxy)-3-fluorophenyl)sulfonyl)-6-(methylsulfinyl)quinolin-4-yl)-[1,4′:1′,4″- terpiperidin]-3-ol], the cytotoxicity at 20 µM came to 30%.

Turning to `CCCCCCCCCCCCCCOc1ccc(S(=O)(=O)c2cnc3ccc([S+](C)[O-])cc3c2N2CCC(N3CCN(CCO)CC3)CC2)cc1F` (stereo not shown) [compound 365, 2-(4-(1-(3-((3-fluoro-4-(tetradecyloxy)phenyl)sulfonyl)-6-(methylsulfinyl)quinolin-4-yl)piperidin-4-yl)piperazin-1-yl)ethanol], the cytotoxicity at 20 µM is 20%.
